From patent US8936806B2, “Periostin induces proliferation of cardiomyocytes and promotes cardiac regeneration” (Children's Medical Center Corporation, priority 2007, dated 2015)
Entries after “also recorded” stand apart in the source; their conditions may differ. Read-outs that look alike come from different tables or passages of the source.

Legend:
[1] = system: primary adult rat ventricular cardiomyocytes; assay: DNA synthesis (BrdU uptake, immunofluorescence) in primary adult rat ventricular cardiomyocytes; format: cell-based; parameters: inhibition of periostin-stimulated DNA synthesis by integrin antibodies: dose or concentration left out as unconfirmed; conditions: for inhibition of periostin-induced DNA synthesis / cell-cycle reentry by kinase inhibitors / inhibition of neuregulin-induced cell-cycle reentry: PD98059 1 mM; for inhibition of periostin-induced DNA synthesis / cell-cycle reentry by kinase inhibitors: U0126 10 mM, LY294002 10 mM, SH-6 10 mM, Akt1/2 inhibitor 1 mM [sic]; for inhibition of neuregulin-induced cell-cycle reentry: U0126 10 mM as printed
Source text: Primary neonatal rat ventricular cardiomyocytes were isolated using the Neomyts kit (Cellutron, Highland Park, N.J.), seeded at a density of 10^5 cells/cm^2 onto gelatin-coated cover slips, stimulated for 3 days, and labeled with BrdU for the terminal 2 days. Primary adult ventricular cardiomyocytes were isolated from male (300 gm) Wistar rats (Charles River Laboratories) and maintained as described (Engel, F. B. et al. p38 MAP kinase inhibition enables proliferation of adult mammalian cardiomyocytes. Genes Dev 19, 1175-87 (2005)). Adult cardiomyocytes were stimulated daily for 9 days and labeled with 30 μM BrdU for the terminal 3 days. Cardiomyocytes were stimulated with periostin (500 ng/mL) and FGF (100 ng/mL). […] The vehicle used to dissolve factors or chemicals was added to unstimulated samples, which were then processed together with the test samples. DNA-synthesis was analyzed by visualization of BrdU uptake and cytokinesis was determined by detection of the cleavage furrow and the midbody with an antibody against aurora B kinase as described (Engel, F. B. et al. p38 MAP kinase inhibition enables proliferation of adult mammalian cardiomyocytes. Genes Dev 19, 1175-87 (2005)). Signals were visualized with secondary antibodies conjugated to Alexa 488, Alexa 546, Alexa 594, and Alexa 647 (Invitrogen). […] For image acquisition, the value for γ was set at 1 and the lookup table settings were linear. Primary adult rat ventricular cardiomyocytes were grown on gridded cover slips (Electron Microscopy Services, Ft. Washington, Pa.) and imaged in phase contrast at 10× magnification. Cardiomyocytes were transduced with an adenovirus leading to nuclear expression of histone2B-GFP (Shi, Q. & King, R. W. Nature 437, 1038-42 (2005)) under control of the chicken troponin T promoter ([…]. Am J Physiol Cell Physiol 286, […]-64 (2004)). Nuclei were visualized at 10× magnification with a mercury-arc lamp dimmed to 1.5% with a neutral density filter. […] Images of BrdU-positive cardiomyocytes were matched with the corresponding images from before stimulation. For quantification, differentiated cardiomyocytes were defined as striated rod-shaped structures with length/width ratio>1.5.

[2] = system: primary neonatal rat ventricular cardiomyocytes; assay: DNA synthesis, mitosis and cytokinesis in primary neonatal rat ventricular cardiomyocytes; format: cell-based; conditions: for induction of cardiomyocyte DNA synthesis: FIG. 2d, 2e; for inhibition of periostin-stimulated DNA synthesis by integrin blockers: cRGD 10 μM, antibodies 10 μg/mL
Source text: Primary neonatal rat ventricular cardiomyocytes were isolated using the Neomyts kit (Cellutron, Highland Park, N.J.), seeded at a density of 10^5 cells/cm^2 onto gelatin-coated cover slips, stimulated for 3 days, and labeled with BrdU for the terminal 2 days. Primary adult ventricular cardiomyocytes were isolated from male (300 gm) Wistar rats (Charles River Laboratories) and maintained as described (Engel, F. B. et al. p38 MAP kinase inhibition enables proliferation of adult mammalian cardiomyocytes. Genes Dev 19, 1175-87 (2005)). Adult cardiomyocytes were stimulated daily for 9 days and labeled with 30 μM BrdU for the terminal 3 days. Cardiomyocytes were stimulated with periostin (500 ng/mL) and FGF (100 ng/mL). Inhibiting antibodies were added at a concentration of 10 μg/mL, cRGD at 10 μM, U0126 at 10 μM, PD98059 at 1 μM, LY294002 at 10 μM, and Wortmannin at 0.1 μM 30 min prior to stimulation. The vehicle used to dissolve factors or chemicals was added to unstimulated samples, which were then processed together with the test samples.
DNA-synthesis was analyzed by visualization of BrdU uptake and cytokinesis was determined by detection of the cleavage furrow and the midbody with an antibody against aurora B kinase as described (Engel, F. B. et al. p38 MAP kinase inhibition enables proliferation of adult mammalian cardiomyocytes. Genes Dev 19, 1175-87 (2005)). Signals were visualized with secondary antibodies conjugated to Alexa 488, Alexa 546, Alexa 594, and Alexa 647 (Invitrogen). Nuclei were visualized with 4′,6′-diamidino-2-phenylindole (DAPI, Invitrogen). For image acquisition, the value for γ was set at 1 and the lookup table settings were linear.

[3] = system: primary neonatal rat ventricular cardiomyocytes; assay: Cardiomyocyte proliferation by cell count (hemocytometer); format: cell-based; conditions: for inhibition of periostin-stimulated proliferation by ERK and PI3-kinase inhibitors: U0126 10 μM, PD98059 1 μM, LY294002 10 μM, Wortmannin 0.1 μM; for inhibition of periostin-stimulated proliferation by integrin blockers: cRGD 10 μM, antibodies 10 μg/mL
Method: To determine cardiomyocyte proliferation, primary neonatal rat ventricular cardiomyocytes were quantified by counting with a hemocytometer after 3 days and 6 days of stimulation. To determine cardiomyocyte survival, primary neonatal rat ventricular cardiomyocytes were pre-treated with 500 ng/mL periostin or buffer for 30 min and then exposed to 0.5 μM doxycycline or 100 ng/mL TNFα for 24 hr and quantified by counting. Corresponding samples were stained with an antibody directed against tropomyosin as a cardiomyocyte marker to control for the percentage of differentiated cardiomyocytes. Apoptotic cardiomyocyte nuclei were determined after 24 hr with the In situ Cell Death Detection Kit (Roche, Indianapolis, Ind.) in combination with staining for troponin I.

[4] = system: Adult male Sprague-Dawley rats; assay: Cardiomyocyte cell cycle activity in vivo after intramyocardial injection; parameters: species or system rat; LVFW CM nuclei: unit not given here
Method: Experiments were performed in accordance with institutional guidelines of Massachusetts General Hospital. Injections and analyses were performed in a blinded fashion. Adult male Sprague-Dawley rats (300 gm, Charles River Laboratories) underwent thoracotomy and received intramyocardial injections of 50 μg of recombinant human periostin consisting of the fas1-4 domains, 50 μg of rat fibronectin, or 100 μL of 100 mM sodium acetate as a control (5 rats per group). The survival rate for this procedure was 80%. Injected periostin was confirmed by detection with a polyclonal antibody directed against human periostin (Abcam) and visualized by immunofluorescence microscopy. Intraperitoneal injections of BrdU (70 μmol/kg body weight) with a tissue half life of 2 hr were given every 48 hr, and rats were sacrificed after the third injection. Horizontal cryosections of 14 μm thickness spaced at 1 mm intervals were analyzed by laser scanning immunofluorescence microscopy. BrdU-positive cardiomyocyte nuclei and cytokineses were quantified on 16-20 sections per heart. Fibrosis and cardiomyocyte cross-sectional area were determined on 5 Masson's Trichrome-stained sections at the level of the injection at 40× magnification and quantified using the Metamorph software package (Molecular Devices Corp., Downingtown, Pa.).

[5] = U0126 10 μM, PD98059 1 μM, LY294002 10 μM, Wortmannin 0.1 μM
[6] = 1 week after intracardiac injection

C[S+]([O-])c1ccc(-c2nc(-c3ccncc3)c(-c3ccc(F)cc3)[nH]2)cc1 (stereo not shown) [SB203580] was tested, and the “effect on periostin-induced cardiomyocyte DNA synthesis when added” value ([1]; FGF 100 ng/ml, SB203580 5 mM or 10 mM as printed) was “no additional effect”.

With SH-6 the “inhibition of periostin-induced DNA synthesis / cell-cycle reentry by kinase inhibitors” value ([1]; differentiated cardiomyocytes) was “reduced”.

“collagen: type 1 rat collagen, extracellular matrix component known to activate integrins” was tested, and the “induction of cardiomyocyte DNA synthesis” value [2] was “did not induce DNA synthesis”.

In the case of COc1cccc(-c2cc(=O)c3ccccc3o2)c1N [PD98059], the “inhibition of neuregulin-induced cell-cycle reentry” value ([1]; differentiated cardiomyocytes) is reported as “inhibited”, the “inhibition of periostin-induced DNA synthesis / cell-cycle reentry by kinase inhibitors” value ([1]; differentiated cardiomyocytes) is reported as “did not reduce; also recorded: did not block” and the “inhibition of periostin-stimulated proliferation by ERK and PI3-kinase inhibitors” value [3] is reported as “inhibited”. For the same molecule, the “inhibition of periostin-stimulated DNA synthesis by ERK and PI3-kinase inhibitors” value [2, 5] was “inhibited only by blocking Akt activation” and the “inhibition of periostin-stimulated cytokinesis by ERK and PI3-kinase inhibitors” value [2, 5] was “inhibited”.

For Cyclic Arg-Gly-Asp [cRGD], the “inhibition of periostin-stimulated proliferation by integrin blockers” value [3] was “blocked” and the “inhibition of periostin-stimulated DNA synthesis by integrin blockers” value [2] was “inhibited; also recorded: blocked”.

In the case of “Fibronectin: Rat fibronectin from Biomedical Technologies; extracellular matrix component [reference compound]”, the “LVFW BrdU-positive CM nuclei” value [4, 6] is reported as 0.002 ± 0.0004%, the “LVFW CM nuclei” value [4, 6] is reported as 10.7 ± 0.4 10^$$ per heart and the “LVFW BrdU-positive CM nuclei” value ([4]; 1 week after intracardiac injection, 3 BrdU injections) is reported as 273.6 ± 42.8 per heart. For the same molecule, the LVFW myocardial volume ([4]; 1 week after intracardiac injection, 50 μg periostin (fas1-4 domains) or 50 μg rat fibronectin) was 224 ± 6 mm^3, the “cardiomyocyte DNA synthesis in vivo” value ([4]; FIG. 4c) was “did not increase” and the “cardiomyocyte cytokinesis in vivo” value ([4]; FIG. 4d) was “did not increase”. The “induction of cardiomyocyte DNA synthesis” value [2] was “did not induce DNA synthesis”.

For “integrin αV antibody: integrin αV (RMV-7) blocking antibody, BioLegend”, the “inhibition of periostin-stimulated DNA synthesis by integrin antibodies” value ([1]; differentiated cardiomyocytes) was “inhibited”, the “inhibition of periostin-stimulated proliferation by integrin blockers” value [3] was “inhibited” and the “inhibition of periostin-stimulated DNA synthesis by integrin blockers” value [2] was “inhibited”.

For N#CC(=C(/N)Sc1ccccc1N)/C(C#N)=C(\N)Sc1ccccc1N [U0126], the “inhibition of neuregulin-induced cell-cycle reentry” value ([1]; differentiated cardiomyocytes) was “inhibited”, the “inhibition of periostin-induced DNA synthesis / cell-cycle reentry by kinase inhibitors” value ([1]; differentiated cardiomyocytes) was “did not reduce; also recorded: did not block” and the “inhibition of periostin-stimulated proliferation by ERK and PI3-kinase inhibitors” value [3] was “inhibited”. For the same molecule, the “inhibition of periostin-stimulated DNA synthesis by ERK and PI3-kinase inhibitors” value [2] was “inhibited only by blocking Akt activation” and the “inhibition of periostin-stimulated cytokinesis by ERK and PI3-kinase inhibitors” value [2] was “inhibited”.

O.O=C(O)C(F)(F)F.O=c1[nH]c2ccccc2n1C1CCN(Cc2ccc(-c3nc4cc5[nH]cnc5cc4nc3-c3ccccc3)cc2)CC1 [Akt1/2 inhibitor] was tested, and the “inhibition of periostin-induced DNA synthesis / cell-cycle reentry by kinase inhibitors” value ([1]; differentiated cardiomyocytes) was “reduced”.

B1: boiled periostin: boiled periostin used in control experiments to rule out a non-protein impurity (protein, UniProt Q15063 22-836, looked up)
Periostin: NNHYDKILAHSRIRGRDQGPNVCALQQILGTKKKYFSTCKNWYKKSICGQKTTVLYECCPGYMRMEGMKGCPAVLPIDHVYGTLGIVGATTTQRYSDASKLREEIEGKGSFTYFAPSNEAWDNLDSDIRRGLESNVNVELLNALHSHMINKRMLTKDLKNGMIIPSMYNNLGLFINHYPNGVVTVNCARIIHGNQIATNGVVHVIDRVLTQIGTSIQDFIEAEDDLSSFRAAAITSDILEALGRDGHFTLFAPTNEAFEKLPRGVLERIMGDKVASEALMKYHILNTLQCSESIMGGAVFETLEGNTIEIGCDGDSITVNGIKMVNKKDIVTNNGVIHLIDQVLIPDSAKQVIELAGKQQTTFTDLVAQLGLASALRPDGEYTLLAPVNNAFSDDTLSMDQRLLKLILQNHILKVKVGLNELYNGQILETIGGKQLRVFVYRTAVCIENSCMEKGSKQGRNGAIHIFREIIKPAEKSLHEKLKQDKRFSTFLSLLEAADLKELLTQPGDWTLFVPTNDAFKGMTSEEKEILIRDKNALQNIILYHLTPGVFIGKGFEPGVTNILKTTQGSKIFLKEVNDTLLVNELKSKESDIMTTNGVIHVVDKLLYPADTPVGNDQLLEILNKLIKYIQIKFVRGSTFKEIPVTVYTTKIITKVVEPKIKVIEGSLQPIIKTEGPTLTKVKIEGEPEFRLIKEGETITEVIHGEPIIKKYTKIIDGVPVEITEKETREERIITGPEIKYTRISTGGGETEETLKKLLQEEVTKVTKFIEGGDGHLFEDEEIKRLLQGDTPVRKLQANKKVQGSRRRLREGRSQ
modifications: heat-denatured
notes: boiled periostin used in control experiments to rule out a non-protein impurity
In the case of B1, the “activation of the cardiomyocyte cell cycle” value ([2]; control for non-protein impurity) is reported as “did not activate”.

B2: variant consisting of the 4 fas1 domains: periostin derivative consisting of 4 fas1 domains, purified from bacteria, molecular weight of 75 kDa (protein)
chain: NNHYDKILAHSRIRGRDQGPNVCALQQILGTKKKYFSTCKNWYKKSICGQKTTVLYECCPGYMRMEGMKGCPAVLPIDHVYGTLGIVGATTTQRYSDASKLREEIEGKGSFTYFAPSNEAWDNLDSDIRRGLESNVNVELLNALHSHMINKRMLTKDLKNGMIIPSMYNNLGLFINHYPNGVVTVNCARIIHGNQIATNGVVHVIDRVLTQIGTSIQDFIEAEDDLSSFRAAAITSDILEALGRDGHFTLFAPTNEAFEKLPRGVLERFMGDKVASEALMKYHILNTLQCSESIMGGAVFETLEGNTIEIGCDGDSITVNGIKMVNKKDIVTNNGVIHLIDQVLIPDSAKQVIELAGKQQTTFTDLVAQLGLASALRPDGEYTLLAPVNNAFSDDTLSMVQRLLKLILQNHILKVKVGLNELYNGQILETIGGKQLRVFVYRTAVCIENSCMEKGSKQGRNGAIHIFREIIKPAEKSLHEKLKQDKRFSTFLSLLEAADLKELLTQPGDWTLFVPTNDAFKGMTSEEKEILIRDKNALQNIILYHLTPGVFIGKGFEPGVTNILKTTQGSKIFLKEVNDTLLVNELKSKESDIMTTNGVIHVVDKLLYPADTPVGNDQLLEILNKLIKYIQIKFVRGSTFKEIPVTVY
For B2, the “induction of cardiomyocyte DNA synthesis” value [2] was “stimulated DNA synthesis as effectively as FGF”.
